Patent US9388149B2, “Disubstituted 3,4-diamino-3-cyclobutene-1,2-dione compounds for use in the treatment of chemokine-mediated diseases” (GALDERMA RESEARCH & DEVELOPMENT, priority 2011, dated 2016)

How the values were obtained:
[1] = Metabolic stabilities in hepatocytes; type: in vitro ADME; conditions: compound 1 μM, sampling up to 24 hours; for Half-life time: human hepatocytes; for half-life at 1 μM: human, hepatocytes, read-out: Half-life time
Protocol: The human hepatocytes were supplied by Biopredic in 24-well plates.
The samples of incubation medium after addition of the test compound were taken at times t=0, 1, 2, 4, 6 and 24 hours.

CXCR2 receptor = CXCR2 receptor (Homo sapiens (Human), UniProt P25025); test: β-arrestin recruitment test, PathHunter HEK293-CXCR2 cells stimulated with CXCL8; type: cell-based; conditions: inhibition of CXCL8 (10 nM) induced β-arrestin 2 recruitment; *9999 signifies not active
Sequence of CXCR2 receptor (P25025 whole entry): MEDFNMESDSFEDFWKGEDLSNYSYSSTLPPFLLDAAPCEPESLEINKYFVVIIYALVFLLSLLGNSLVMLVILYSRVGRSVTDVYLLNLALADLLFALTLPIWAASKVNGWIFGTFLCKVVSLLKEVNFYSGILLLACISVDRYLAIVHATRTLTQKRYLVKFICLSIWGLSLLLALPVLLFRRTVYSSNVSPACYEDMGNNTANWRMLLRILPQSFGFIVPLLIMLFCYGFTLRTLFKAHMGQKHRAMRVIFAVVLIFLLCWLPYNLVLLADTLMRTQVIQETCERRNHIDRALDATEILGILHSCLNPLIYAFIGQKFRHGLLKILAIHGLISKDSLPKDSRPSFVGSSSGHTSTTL
Protocol: (§1) The in vitro affinity of the compounds of the present invention for the CXCR1 and CXCR2 receptors was determined on a functional test of the β-arrestin recruitment after receptor activation type.
(§2) β-Arrestin recruitment test: “PathHunter HEK293-CXCR2” or “U2OS hCXCR1 β-arrestin” cells (DiscoveRx Corporation) were seeded overnight at 10 000 cells/well (384-well format) in 20 μl of Opti MEM I medium. A preincubation with the antagonist or the vehicle for 30 min at 37° C. and 5% CO2 was followed by 60 minutes of stimulation with CXCL8 at 37° C. and 5% CO2. The cells were then placed at ambient temperature for 30 minutes. The PathHunter detection reagent (DiscoveRx Corporation) was added. […] The data were analyzed by means of a non-linear curve procedure using the XLFit4 exploitation software (IDBS) and the IC50 values were determined.

CXCR1 receptor = CXCR1 receptor (Homo sapiens (Human), UniProt P25024); test: β-arrestin recruitment test, U2OS hCXCR1 β-arrestin cells stimulated with CXCL8; type: cell-based; conditions: inhibition of CXCL8 (10 nM) induced β-arrestin 2 recruitment; *9999 signifies not active
Sequence of CXCR1 receptor (P25024 whole entry): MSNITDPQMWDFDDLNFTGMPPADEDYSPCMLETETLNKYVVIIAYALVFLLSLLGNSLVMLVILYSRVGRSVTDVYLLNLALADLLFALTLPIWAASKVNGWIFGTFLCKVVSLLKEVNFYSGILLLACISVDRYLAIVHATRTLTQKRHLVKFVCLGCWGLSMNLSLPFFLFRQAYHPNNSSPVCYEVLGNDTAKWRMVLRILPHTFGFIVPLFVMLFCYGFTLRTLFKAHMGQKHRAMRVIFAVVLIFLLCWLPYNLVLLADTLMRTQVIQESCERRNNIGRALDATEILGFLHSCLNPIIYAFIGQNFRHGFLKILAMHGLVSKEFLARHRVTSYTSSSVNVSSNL
Protocol: as §1, §2

[2] = Metabolic stabilities in hepatic microsomes; conditions: hepatic microsomes 0.5 mg/ml protein, compound 1 μM, sampling up to 60 minutes
Protocol: Hepatic microsomes (Becton Dickinson) were incubated at a protein concentration of 0.5 mg/ml in the reaction medium.
The reaction medium of the microsomes was composed of phosphate buffer, pH: 7.4 at 100 mM, of MgCl2 at 100 mM (50/50), of an ATP-generating system composed of a mixture of nicotinamide adenine diphosphate (NADP), of glucose-6-phosphate (G6P) at 1 mg/ml and of glucose-6-phosphate dehydrogenase (G6PDH) at 4 U/ml. The compounds were tested at 1 μM (0.1% DMSO).
The samples of incubation medium after addition of the microsomes were taken at times 5, 10, 15, 30 and 60 minutes. At each time, the metabolic reaction was stopped by adding methanol (1 volume incubation medium/3 volumes of methanol). The disappearance of the parent product was measured by LC/MS/MS analysis. The time for which 50% of parent product disappeared (T1/2) was calculated from the kinetics of disappearance of the parent product as a function of time.

CCR4 = CCR4 (Homo sapiens (Human), UniProt P51679); test: Calcium flux on Chem-1 cells expressing the chemokine receptor (FLIPR TETRA), antagonist mode
Sequence of CCR4 (P51679 whole entry): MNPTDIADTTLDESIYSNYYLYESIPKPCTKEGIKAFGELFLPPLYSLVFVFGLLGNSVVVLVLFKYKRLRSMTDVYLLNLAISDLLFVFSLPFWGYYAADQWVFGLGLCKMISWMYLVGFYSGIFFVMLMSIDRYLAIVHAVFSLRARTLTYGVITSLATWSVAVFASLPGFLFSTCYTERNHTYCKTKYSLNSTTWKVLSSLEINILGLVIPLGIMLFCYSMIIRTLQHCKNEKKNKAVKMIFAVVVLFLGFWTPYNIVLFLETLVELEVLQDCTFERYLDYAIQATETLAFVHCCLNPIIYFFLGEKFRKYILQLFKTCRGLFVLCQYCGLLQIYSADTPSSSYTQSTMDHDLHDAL
Protocol: (§3) Measurement of calcium flux on cells: The experiments were carried out on the FLIPR TETRA® platform from Molecular Devices.
(§4) Each cell line expressing a chemokine receptor was established on the basis of the Chem-1 cell stably expressing the recombinant form of the chemokine receptor and also an associated G protein, with the aim of coupling the receptor to the calcium signalling pathway.
(§5) 21 receptors belonging to the chemokine receptor family (CCRs and CXCRs) were analyzed.

CXCR3 = CXCR3 (Homo sapiens (Human), UniProt P49682); test: as above; conditions: IC50 CXCR3, antagonist activity, reference agonist at AC80
Sequence of CXCR3 (P49682 whole entry): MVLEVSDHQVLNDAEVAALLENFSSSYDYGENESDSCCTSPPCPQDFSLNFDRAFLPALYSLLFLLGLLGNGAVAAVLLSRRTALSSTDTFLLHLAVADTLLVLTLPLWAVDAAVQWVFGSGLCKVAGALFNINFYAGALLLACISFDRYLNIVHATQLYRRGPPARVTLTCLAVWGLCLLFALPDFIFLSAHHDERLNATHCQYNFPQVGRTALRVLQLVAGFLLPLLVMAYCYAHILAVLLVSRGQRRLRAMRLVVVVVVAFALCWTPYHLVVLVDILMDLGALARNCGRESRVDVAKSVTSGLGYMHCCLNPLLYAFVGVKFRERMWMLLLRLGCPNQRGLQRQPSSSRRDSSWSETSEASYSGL
Protocol: as §3, §4, §5

| Compound | IC50 (CXCR2 receptor) [nM] | IC50 (CXCR1 receptor) [nM] | other results |
| --- | --- | --- | --- |
| Cc1ccc(C(Nc2c(Nc3cccc(C(=O)N(C)CC(F)(F)F)c3O)c(=O)c2=O)C2CCCS2)o1 (single isomer, unassigned) [Example 8 (Diastereoisomer 2)] | 47 | 85 | – |
| Cc1ccc(C(Nc2c(Nc3cccc(C(=O)N(C)C)c3O)c(=O)c2=O)[C@@H]2CCCO2)o1 (stereo in doubt) [Example 12, 2-hydroxy-N,N-dimethyl-3-(2-{[(S)-(5-methylfuran-2-yl)tetrahydrofuran-2-ylmethyl]amino}-3,4-dioxocyclobut-1-enylamino)benzamide] | 83 | 483 | – |
| Cc1ccc(C(Nc2c(Nc3cccc(C(=O)N(C)C)c3O)c(=O)c2=O)[C@@H]2COC(C)(C)O2)o1 (single isomer, unassigned) [Example 14 (Diastereoisomer 1)] | 10000 | 10000 | – |
| Methyl (S)-1[2-fluoro-3-(2-{[(R,S)-(5-methylfuran-2-yl)((S,R)-tetrahydrothiophen-2-yl)methyl]amino}-3,4-dioxocyclobut-1-enylamino)benzoyl]pyrrolidine-2-carboxylate [Example 3 (pair of enantiomers 1 and 2)] | 221 | 812 | Half-life time [2]: 0.05 h; Half-life time [1]: 2.35 h |
| CN(C)C(=O)c1cccc(Nc2c(NC(c3ccccc3)C3CCCO3)c(=O)c2=O)c1O (stereo not drawn) [Example 13, 3-(3,4-dioxo-2-{[phenyl(tetrahydrofuran-2-yl)methyl]amino}cyclobut-1-enylamino)-2-hydroxy-N,N-dimethylbenzamide] | 170 | 1150 | – |
| Cc1ccc(C(Nc2c(Nc3cccc(C(=O)N4CCC[C@H]4C(=O)OC(C)C)c3F)c(=O)c2=O)C2CCCS2)o1 (stereo partly drawn) [Example 4, Isopropyl (S)-1-[2-fluoro-3-(2-{[(5-methylfuran-2-yl)-(tetrahydrothiophen-2-yl)methyl]amino}-3,4-dioxocyclobut-1-enylamino)benzoyl]pyrrolidine-2-carboxylate] | 109 | 1890 | – |
| Cc1ccc(C(Nc2c(Nc3cccn(C)c3=O)c(=O)c2=O)C2CCCS2)o1 (stereo not drawn) [Example 17, 3-{[(5-methylfuran-2-yl)-(tetrahydrothiophen-2-yl)methyl]amino}-4-(1-methyl-2-oxo-1,2-dihydropyridin-3-ylamino)cyclobut-3-ene-1,2-dione] | 44 | 384 | – |
| COC(=O)[C@H]1CCCN1C(=O)c1cccc(Nc2c(NC(c3ccc(C)o3)C3CCCS3)c(=O)c2=O)c1O (single isomer, unassigned) [Example 20] | – | – | IC50 (CCR4): 7.2 nM; Half-life time [2]: 0.283 h; IC50 (CXCR3): 180 nM; half-life at 1 μM [1]: 3.52 h |
| CCOC(=O)[C@@H]1CCCN1C(=O)c1cccc(Nc2c(NC(c3ccc(C)o3)C3CCCS3)c(=O)c2=O)c1F (stereo partly drawn) [Example 5, Ethyl (S)-1-[2-fluoro-3-(2-{[(5-methylfuran-2-yl)-(tetrahydrothiophen-2-yl)methyl]amino}-3,4-dioxocyclobut-1-enylamino)benzoyl]pyrrolidine-2-carboxylate] | 106 | 711 | – |
| Cc1ccc(C(Nc2c(Nc3cccc(C(=O)N(C)C)c3O)c(=O)c2=O)[C@H]2CCCO2)o1 (stereo in doubt) [Example 11, 2-hydroxy-N,N-dimethyl-3-(2-{[(R)-(5-methylfuran-2-yl)tetrahydrofuran-2-ylmethyl]amino}-3,4-dioxocyclobut-1-enylamino)benzamide] | 176 | 1320 | – |
| Cc1ccc(C(Nc2c(Nc3cccc(C(=O)N(C)C)c3O)c(=O)c2=O)[C@@H]2COC(C)(C)O2)o1 (single isomer, unassigned) [Example 14 (Diastereoisomer 2)] | 1250 | 10000 | – |
| Cc1ccc(C(Nc2c(Nc3cccc(C(=O)N(C)C)c3O)c(=O)c2=O)C2(C)CCCO2)o1 (single isomer, unassigned) [Example 1 (diastereoisomer 1), 2-hydroxy-N,N-dimethyl-3-(2-{[(5-methylfuran-2-yl)-(2-methyltetrahydrofuran-2-yl)methyl]amino}-3,4-dioxocyclobut-1-enylamino)benzamide] | 89 | – | – |
| COC(=O)[C@H]1CCCN1C(=O)c1cccc(Nc2c(NC(c3ccc(C)o3)C3CCCS3)c(=O)c2=O)c1O (single isomer, unassigned) [Example 6] | – | – | Half-life time [2]: 0.083 h; IC50 (CXCR3): 140 nM |
| Cc1ccc(C(Nc2c(Nc3cccc(C(=O)N(C)C)c3O)c(=O)c2=O)C2(C)CCCO2)o1 (single isomer, unassigned) [Example 1 (Enantiomer 1 of diastereoisomer 2), 2-Hydroxy-N,N-dimethyl-3-(2-{[(5-methylfuran-2-yl)-(2-methyltetrahydrofuran-2-yl)methyl]amino}-3,4-dioxo-cyclobut-1-enylamino)benzamide] | 10000 | – | – |

More lines, main results first:

| IC50 (CXCR2 receptor) [nM] | IC50 (CXCR1 receptor) [nM] | Compound | other results |
| --- | --- | --- | --- |
| 15 | – | Cc1ccc(C(Nc2c(Nc3cccc(C(=O)N(C)C)c3O)c(=O)c2=O)C2CCCS2)o1 (single isomer, unassigned) [Example 2 (Enantiomer 1 of diastereoisomer 2), 2-Hydroxy-N,N-dimethyl-3-(2-{[(5-methylfuran-2-yl)-(tetrahydrothiophen-2-yl)methyl]amino}-3,4-dioxo-cyclobut-1-enylamino)benzamide] | Half-life time [1]: 3.55 h |
| 273 | – | Cc1ccc(C(Nc2c(Nc3cccc(C(=O)N(C)C)c3O)c(=O)c2=O)C2CCCS2)o1 (single isomer, unassigned) [Example 2 (Enantiomer 1 of diastereoisomer 1), 2-Hydroxy-N,N-dimethyl-3-(2-{[(5-methylfuran-2-yl)-(tetrahydrothiophen-2-yl)methyl]amino}-3,4-dioxo-cyclobut-1-enylamino)benzamide] | – |
| 56 | – | Cc1ccc(C(Nc2c(Nc3cccc(C(=O)N(C)C)c3O)c(=O)c2=O)C2CCCS2)o1 (single isomer, unassigned) [Example 2 (Enantiomer 2 of diastereoisomer 1), 2-Hydroxy-N,N-dimethyl-3-(2-{[(5-methylfuran-2-yl)-(tetrahydrothiophen-2-yl)methyl]amino}-3,4-dioxo-cyclobut-1-enylamino)benzamide] | – |
| 15 | 36 | Cc1ccc([C@H](Nc2c(Nc3cccc(C(=O)N(C)CC(F)(F)F)c3O)c(=O)c2=O)C2CCCS2)o1 (single isomer, unassigned; (-)) [Example 18] | IC50 (CCR4): 97 nM; half-life at 1 μM ([2]; hepatic microsomes, pH 7.4, Half-life time (min)): 0.25 h; IC50 (CXCR3): 450 nM; half-life at 1 μM [1]: 1.37 h |
| 134 | – | Cc1ccc(C(Nc2c(Nc3cccc(C(=O)N(C)C)c3O)c(=O)c2=O)C2CCCS2)o1 (single isomer, unassigned) [Example 2 (Enantiomer 2 of diastereoisomer 2), 2-Hydroxy-N,N-dimethyl-3-(2-{[(5-methylfuran-2-yl)-(tetrahydrothiophen-2-yl)methyl]amino}-3,4-dioxo-cyclobut-1-enylamino)benzamide] | Half-life time [1]: 3.82 h |
| 153 | 580 | COC(=O)CN(C)C(=O)c1cccc(Nc2c(NC(c3ccc(C)o3)C3CCCS3)c(=O)c2=O)c1O (single isomer, unassigned) [9 (Diastereoisomer 1), methyl {[2-hydroxy-3-(2-{[(5-methylfuran-2-yl)-(tetrahydrothiophen-2-yl)methyl]amino}-3,4-dioxocyclobut-1-enylamino)benzoyl]methylamino}acetate] | – |
| 135 | – | Cc1ccc(C(Nc2c(Nc3cccc(C(=O)N(C)C)c3O)c(=O)c2=O)C2CCCS2)o1 (single isomer, unassigned) [Example 2 (diastereoisomer 1), 2-Hydroxy-N,N-dimethyl-3-(2-{[(5-methylfuran-2-yl)-(tetrahydrothiophen-2-yl)methyl]amino}-3,4-dioxo-cyclobut-1-enylamino)benzamide] | Half-life time [2]: 0.15 h; Half-life time [1]: 1.77 h |
| 80 | 89 | COC(=O)CN(C)C(=O)c1cccc(Nc2c(NC(c3ccc(C)o3)C3CCCS3)c(=O)c2=O)c1O (single isomer, unassigned) [Example 9 (Diastereoisomer 2), methyl {[2-hydroxy-3-(2-{[(5-methylfuran-2-yl)-(tetrahydrothiophen-2-yl)methyl]amino}-3,4-dioxocyclobut-1-enylamino)benzoyl]methylamino}acetate] | – |
| 115 | 508 | Cc1ccc(C(Nc2c(Nc3cccc(C(=O)N(C)CC(F)(F)F)c3O)c(=O)c2=O)C2CCCS2)o1 (single isomer, unassigned) [Example 8 (Diastereoisomer 1)] | – |
